Experimental data as given in patent publication US11464751B2, “Use of fluoroethylnormemantine for the prevention and treatment of anxiety” (REST THERAPEUTICS, priority 2017, dated 2022).

Legend:
naive rats (Wistar) [1] = test: Fear conditioning + extinction + stabilization (PTSD model); format: in vivo, rat; details: for Percentage of time of tetany (freezing) during the stabilization phase: 10 mg/kg
Source text: Several animal models have been developed to mimic the traumatic events that induce intense and recurrent fear symptoms characteristic of PTSD. • Pavlovian fear conditioning of the animals: This animal model consists of Pavlovian-type fear conditioning (Zovkic, Neuropsychopharmacology Reviews (2013) 38, 77-93): mice (or rats) are trained to associate exposure to danger (electric shock, etc.) with the presence of a specific cue or environment (sound cue for example). The memory of this association (danger-cue) is later tested by measuring tetany behavior (through fear) when the animal is re-exposed to the conditioning cue in the absence of real danger.
Again, the occurrence of symptoms of PTSD are assessed after a certain period of time, without exposure to the hazard, to simulate the long-term onset of PTSD pathology. • Fear extinction: After a fear conditioning as described above it can be of interest to apply a protocol to extinguish this fear. Classically, this phase is placed 24 hours after the conditioning phase.
The extinction protocols model the relearning of the normal (non-fear-motivated) response to the cue (sound) and are very useful in modeling PTSD. • Fear stabilization: It can be useful, to assess the performance of a treatment, to add a stabilization phase after the extinction phase, spaced 24 h apart. Typically, this phase puts the animals back under the extinction phase conditions. It then allows the detection of staggered performances of the treatments, but also of the resurgence of tetany (rebound effect).
In the following examples, the effects of memantine, propranolol and fluoroethylnormemantine (FENM, the subject of the present invention) are studied in naive rats (Wistar) subjected to various tests related to depression or anxiety and then compared.
The test substances are administered to rats intraperitoneally in a volume of 5 ml/kg, 30 minutes before the behavioral tests are performed.
The injected solutions contain either of the molecules in the form of one of their salts, a hydrochloride (memantine·HCl and FENM·HCl) for the nitrogen derivatives and as such for propranolol, at the concentrations indicated below in a mixture of 95% (NaCl 0.9% ww in water)/5% ethanol. In each experiment, the dose per kilogram is referenced.
The applicant used a fear conditioning test in which the clue (neutral conditional stimulus) is a sound, coupled with a danger (aversive unconditional stimulus) which is an electric shock delivered by the floor of the box. This conditioning is followed by a fear extinction phase with injection of the treatment solutions to be tested and then by a test phase itself. • Fear Conditioning Phase (FC): fear conditioning takes place in a standard conditioning box (context A, white box in Table 7) and the rats (8 per group) are subjected to 3 “sound-electroshock” pairs at times of 180 s, 381 s and 582 s after being placed in the box. Each sound lasts 20 s and each electroshock lasts 1 s with a current of 1 mA. • The fear extinction phase (Ext.) is conducted as follows: the rats are placed in a box similar to the one that will be used for the final test (context B, pink box in Table 7), for a 25-minute session. During this session, 24 presentations are made with the same sound as that used during the conditioning session (20 s each, 35 s apart). Of course, no electric shock is delivered, and the percentage of time of tetany (“freezing”) during the phase is recorded. • Stabilization phase: the day after the extinction phase, 30 minutes before the test phase, […] of 3 sounds (same sequence as used for conditioning), recording the percentage of time they remain still during this test phase. […]

naive rats (Wistar) [2] = details: 5 mg/kg, only after 7 days of treatment; cited from earlier work

SMILES	Percentage of time of tetany (freezing) during the stabilization phase (naive rats (Wistar) [1]; Early treatment: one injection 30 minutes before the extinction phase) [%]	Percentage of time of tetany (freezing) during the stabilization phase (naive rats (Wistar) [1]; Late treatment: one injection 30 minutes before the stabilization phase) [%]	Percentage of time of tetany (freezing) during the stabilization phase (naive rats (Wistar) [1]; Protective effect: one injection 30 minutes before the conditioning phase) [%]	tetany in the stabilization phase compared with control (naive rats (Wistar) [1]; administered at conditioning, early or late post-traumatic treatment)	tetany during the extinction phase (naive rats (Wistar) [1]; administered during the extinction phase, effect lost during the stabilization phase)	anxiolytic activity (light-dark box, for comparison) (naive rats (Wistar) [2])
CC(C)NCC(O)COc1cccc2ccccc12 (stereo not drawn) [Propranolol, propranolol, reference compound]	26	29	28	does not differentiate from the control	reduces tetany	
CNCCC(Oc1ccc(C(F)(F)F)cc1)c1ccccc1 (stereo not drawn) [fluoxetine]						anxiolytic activity
